# Patent US20230136600A1, “Method and device for screening antigen epitope polypeptide” (priority 2020, published 2023)
# Assays:
# [1] = test system: novel coronavirus (live coronavirus), vero cells; assay: In-vitro live virus neutralization experiment with serum of immunized mice (CPE method); assay type: in vivo, SARS-CoV-2; conditions: Embodiment I: single peptide 100 μg + MF59 at Day 0, 14, 28, Balb/c mice, serum Day 35
# Balb/c mice = assay: Polypeptide chip-based vaccine immunogenicity scoring system; assay type: in vivo; parameters: key to A2: whether the 95 percentile of the last sampling is increased compared with the end point: Y = rise; N = no rise; conditions: for A1: difference between a highest median and a D 0 median (95 percentile) / A2: whether the 95 percentile of the last sampling is increased compared with the end point: Mix1-10; for A: 95 percentile grouping number score / B: Mouse performance score: total score = 5; for C1: #A timing-sequence response peptide fragment set / C2: #B vaccine specificity peptide fragment set / C3: Intersection of A and B / C4: Percentage of the intersection in set B / C: Timing-sequence response and specificity score: value of the whole mix
# [2] = Embodiment III, polypeptide-KLH
# [3] = Embodiment III, polypeptide-KLH, A*3 + B*2 + C*1
# [4] = adjuvant AddaVax, 7 peptides co-immunized in mice
# [5] = adjuvant Adju-Phos, 7 peptides co-immunized in mice
# [6] = adjuvant Alhydrogel, 7 peptides co-immunized in mice
# [7] = adjuvant Imjet Alumn, 7 peptides co-immunized in mice
# [8] = adjuvant MA103A, 7 peptides co-immunized in mice
# [9] = adjuvant MA103B, 7 peptides co-immunized in mice
sequence,measurement,setting,value
YGANKDGI (SARS-CoV-2) [SEQ ID NO:21],Neutralizing antibody positive rate (%),[1],40%
same,B1: D 0-D 14 95 percentile rise in the number of mice,Balb/c mice; [2],3
same,B2: D 0-D 21 95 percentile rise in the number of mice,Balb/c mice; [2],3
same,B3: D 14-D 21 95 percentile rise in the number of mice,Balb/c mice; [2],1
same,B4: D 21-D 28 95 percentile rise in the number of mice,Balb/c mice; [2],1
same,A1: difference between a highest median and a D 0 median (95 percentile),Balb/c mice; [2],0.08
same,A2: whether the 95 percentile of the last sampling is increased compared with the end point,Balb/c mice; [2],Y
same,Total single peptide,Balb/c mice; [3],14.8
same,A: 95 percentile grouping number score,Balb/c mice; [2],3.5
same,B: Mouse performance score,Balb/c mice; [2],1.9
same,C1: #A timing-sequence response peptide fragment set,Balb/c mice; [2],230
same,C2: #B vaccine specificity peptide fragment set,Balb/c mice; [2],251
same,C3: Intersection of A and B,Balb/c mice; [2],1
same,C4: Percentage of the intersection in set B,Balb/c mice; [2],0.398
same,C: Timing-sequence response and specificity score,Balb/c mice; [2],0.5
same,1) 95 percentile grouping number A,Balb/c mice; [4],3.5
same,1) 95 percentile grouping number A1,Balb/c mice; [4],0.055
same,2) Mouse performance B,Balb/c mice; [4],2.6
same,2) Mouse performance B1,Balb/c mice; [4],0
same,2) Mouse performance B2,Balb/c mice; [4],3
same,2) Mouse performance B3,Balb/c mice; [4],5
same,3) Timing-sequence response and specificity C,Balb/c mice; [4],0
same,3) Timing-sequence response and specificity C1,Balb/c mice; [4],237
same,3) Timing-sequence response and specificity C2,Balb/c mice; [4],1244
same,3) Timing-sequence response and specificity C3,Balb/c mice; [4],0
same,3) Timing-sequence response and specificity C4,Balb/c mice; [4],0.000
same,Total single peptide,Balb/c mice; [4],15.7
same,1) 95 percentile grouping number A,Balb/c mice; [5],4
same,1) 95 percentile grouping number A1,Balb/c mice; [5],0.05
same,2) Mouse performance B,Balb/c mice; [5],2.9
same,2) Mouse performance B1,Balb/c mice; [5],3
same,2) Mouse performance B2,Balb/c mice; [5],4
same,2) Mouse performance B3,Balb/c mice; [5],3
same,3) Timing-sequence response and specificity C,Balb/c mice; [5],0
same,3) Timing-sequence response and specificity C1,Balb/c mice; [5],203
same,3) Timing-sequence response and specificity C2,Balb/c mice; [5],1244
same,3) Timing-sequence response and specificity C3,Balb/c mice; [5],0
same,3) Timing-sequence response and specificity C4,Balb/c mice; [5],0.000
same,Total single peptide,Balb/c mice; [5],17.8
same,1) 95 percentile grouping number A,Balb/c mice; [6],1.5
same,1) 95 percentile grouping number A1,Balb/c mice; [6],0.025
same,2) Mouse performance B,Balb/c mice; [6],2.4
same,2) Mouse performance B1,Balb/c mice; [6],4
same,2) Mouse performance B2,Balb/c mice; [6],2
same,2) Mouse performance B3,Balb/c mice; [6],2
same,3) Timing-sequence response and specificity C,Balb/c mice; [6],1
same,3) Timing-sequence response and specificity C1,Balb/c mice; [6],123
same,3) Timing-sequence response and specificity C2,Balb/c mice; [6],1244
same,3) Timing-sequence response and specificity C3,Balb/c mice; [6],2
same,3) Timing-sequence response and specificity C4,Balb/c mice; [6],0.161
same,Total single peptide,Balb/c mice; [6],9.8
same,1) 95 percentile grouping number A,Balb/c mice; [7],2
same,1) 95 percentile grouping number A1,Balb/c mice; [7],0.025
same,2) Mouse performance B,Balb/c mice; [7],2.4
same,2) Mouse performance B1,Balb/c mice; [7],0
same,2) Mouse performance B2,Balb/c mice; [7],4
same,2) Mouse performance B3,Balb/c mice; [7],4
same,3) Timing-sequence response and specificity C,Balb/c mice; [7],1
same,3) Timing-sequence response and specificity C1,Balb/c mice; [7],100
same,3) Timing-sequence response and specificity C2,Balb/c mice; [7],1244
same,3) Timing-sequence response and specificity C3,Balb/c mice; [7],3
same,3) Timing-sequence response and specificity C4,Balb/c mice; [7],0.241
same,Total single peptide,Balb/c mice; [7],11.3
same,1) 95 percentile grouping number A,Balb/c mice; [8],3
same,1) 95 percentile grouping number A1,Balb/c mice; [8],0.042
same,2) Mouse performance B,Balb/c mice; [8],2.6
same,2) Mouse performance B1,Balb/c mice; [8],4
same,2) Mouse performance B2,Balb/c mice; [8],3
same,2) Mouse performance B3,Balb/c mice; [8],2
same,3) Timing-sequence response and specificity C,Balb/c mice; [8],1
same,3) Timing-sequence response and specificity C1,Balb/c mice; [8],260
same,3) Timing-sequence response and specificity C2,Balb/c mice; [8],1244
same,3) Timing-sequence response and specificity C3,Balb/c mice; [8],3
same,3) Timing-sequence response and specificity C4,Balb/c mice; [8],0.241
same,Total single peptide,Balb/c mice; [8],14.7
same,1) 95 percentile grouping number A,Balb/c mice; [9],2.5
same,1) 95 percentile grouping number A1,Balb/c mice; [9],0.035
same,2) Mouse performance B,Balb/c mice; [9],2
same,2) Mouse performance B1,Balb/c mice; [9],4
same,2) Mouse performance B2,Balb/c mice; [9],2
same,2) Mouse performance B3,Balb/c mice; [9],1
same,3) Timing-sequence response and specificity C,Balb/c mice; [9],0
same,3) Timing-sequence response and specificity C1,Balb/c mice; [9],153
same,3) Timing-sequence response and specificity C2,Balb/c mice; [9],1244
same,3) Timing-sequence response and specificity C3,Balb/c mice; [9],0
same,3) Timing-sequence response and specificity C4,Balb/c mice; [9],0.000
same,Total single peptide,Balb/c mice; [9],11.5
MEVTPSGTWLTY (SARS-CoV-2) [SEQ ID NO:22],Neutralizing antibody positive rate (%),[1],20%
same,B1: D 0-D 14 95 percentile rise in the number of mice,Balb/c mice; [2],3
same,B2: D 0-D 21 95 percentile rise in the number of mice,Balb/c mice; [2],3
same,B3: D 14-D 21 95 percentile rise in the number of mice,Balb/c mice; [2],3
same,B4: D 21-D 28 95 percentile rise in the number of mice,Balb/c mice; [2],0
same,A1: difference between a highest median and a D 0 median (95 percentile),Balb/c mice; [2],0.07
same,A2: whether the 95 percentile of the last sampling is increased compared with the end point,Balb/c mice; [2],N
same,Total single peptide,Balb/c mice; [3],10.7
same,A: 95 percentile grouping number score,Balb/c mice; [2],2
same,B: Mouse performance score,Balb/c mice; [2],2.1
same,C1: #A timing-sequence response peptide fragment set,Balb/c mice; [2],352
same,C2: #B vaccine specificity peptide fragment set,Balb/c mice; [2],541
same,C3: Intersection of A and B,Balb/c mice; [2],1
same,C4: Percentage of the intersection in set B,Balb/c mice; [2],0.185
same,C: Timing-sequence response and specificity score,Balb/c mice; [2],0.5
same,1) 95 percentile grouping number A,Balb/c mice; [4],4
same,1) 95 percentile grouping number A1,Balb/c mice; [4],0.05
same,2) Mouse performance B,Balb/c mice; [4],2.9
same,2) Mouse performance B1,Balb/c mice; [4],3
same,2) Mouse performance B2,Balb/c mice; [4],4
same,2) Mouse performance B3,Balb/c mice; [4],3
same,3) Timing-sequence response and specificity C,Balb/c mice; [4],0
same,3) Timing-sequence response and specificity C1,Balb/c mice; [4],237
same,3) Timing-sequence response and specificity C2,Balb/c mice; [4],1244
same,3) Timing-sequence response and specificity C3,Balb/c mice; [4],0
same,3) Timing-sequence response and specificity C4,Balb/c mice; [4],0.000
same,Total single peptide,Balb/c mice; [4],17.8
same,1) 95 percentile grouping number A,Balb/c mice; [5],5
same,1) 95 percentile grouping number A1,Balb/c mice; [5],0.075
same,2) Mouse performance B,Balb/c mice; [5],2.1
same,2) Mouse performance B1,Balb/c mice; [5],3
same,2) Mouse performance B2,Balb/c mice; [5],4
same,2) Mouse performance B3,Balb/c mice; [5],1
same,3) Timing-sequence response and specificity C,Balb/c mice; [5],0
same,3) Timing-sequence response and specificity C1,Balb/c mice; [5],203
same,3) Timing-sequence response and specificity C2,Balb/c mice; [5],1244
same,3) Timing-sequence response and specificity C3,Balb/c mice; [5],0
same,3) Timing-sequence response and specificity C4,Balb/c mice; [5],0.000
same,Total single peptide,Balb/c mice; [5],19.2
same,1) 95 percentile grouping number A,Balb/c mice; [6],2
same,1) 95 percentile grouping number A1,Balb/c mice; [6],0.03
same,2) Mouse performance B,Balb/c mice; [6],1.7
same,2) Mouse performance B1,Balb/c mice; [6],3
same,2) Mouse performance B2,Balb/c mice; [6],2
same,2) Mouse performance B3,Balb/c mice; [6],1
same,3) Timing-sequence response and specificity C,Balb/c mice; [6],1
same,3) Timing-sequence response and specificity C1,Balb/c mice; [6],123
same,3) Timing-sequence response and specificity C2,Balb/c mice; [6],1244
same,3) Timing-sequence response and specificity C3,Balb/c mice; [6],2
same,3) Timing-sequence response and specificity C4,Balb/c mice; [6],0.161
same,Total single peptide,Balb/c mice; [6],9.9
same,1) 95 percentile grouping number A,Balb/c mice; [7],5
same,1) 95 percentile grouping number A1,Balb/c mice; [7],0.145
same,2) Mouse performance B,Balb/c mice; [7],2.3
same,2) Mouse performance B1,Balb/c mice; [7],5
same,2) Mouse performance B2,Balb/c mice; [7],4
same,2) Mouse performance B3,Balb/c mice; [7],0
same,3) Timing-sequence response and specificity C,Balb/c mice; [7],1
same,3) Timing-sequence response and specificity C1,Balb/c mice; [7],100
same,3) Timing-sequence response and specificity C2,Balb/c mice; [7],1244
same,3) Timing-sequence response and specificity C3,Balb/c mice; [7],3
same,3) Timing-sequence response and specificity C4,Balb/c mice; [7],0.241
same,Total single peptide,Balb/c mice; [7],20.1
same,1) 95 percentile grouping number A,Balb/c mice; [8],5
same,1) 95 percentile grouping number A1,Balb/c mice; [8],0.11
same,2) Mouse performance B,Balb/c mice; [8],2.5
same,2) Mouse performance B1,Balb/c mice; [8],5
same,2) Mouse performance B2,Balb/c mice; [8],5
same,2) Mouse performance B3,Balb/c mice; [8],0
same,3) Timing-sequence response and specificity C,Balb/c mice; [8],1
same,3) Timing-sequence response and specificity C1,Balb/c mice; [8],260
same,3) Timing-sequence response and specificity C2,Balb/c mice; [8],1244
same,3) Timing-sequence response and specificity C3,Balb/c mice; [8],3
same,3) Timing-sequence response and specificity C4,Balb/c mice; [8],0.241
same,Total single peptide,Balb/c mice; [8],20.5
same,1) 95 percentile grouping number A,Balb/c mice; [9],4.5
same,1) 95 percentile grouping number A1,Balb/c mice; [9],0.07
same,2) Mouse performance B,Balb/c mice; [9],3
same,2) Mouse performance B1,Balb/c mice; [9],4
same,2) Mouse performance B2,Balb/c mice; [9],5
same,2) Mouse performance B3,Balb/c mice; [9],2
same,3) Timing-sequence response and specificity C,Balb/c mice; [9],0
same,3) Timing-sequence response and specificity C1,Balb/c mice; [9],153
same,3) Timing-sequence response and specificity C2,Balb/c mice; [9],1244
same,3) Timing-sequence response and specificity C3,Balb/c mice; [9],0
same,3) Timing-sequence response and specificity C4,Balb/c mice; [9],0.000
same,Total single peptide,Balb/c mice; [9],19.5
